Measured values reported in article PMC6270398, “Synthesis and Promising in Vitro Antiproliferative Activity of Sulfones of a 5-Nitrothiazole Series” (Molecules, 2012).

Columns and labels:
CHO cells = experiment: In vitro cytotoxicity evaluation on CHO cell line (MTT method); type: cell-based; conditions: for CC50: Cricetulus griseus, 24 h incubation with product, mean ± SD of three independent experiments, read-out: Cancer cell toxicity CHO CC50
Experimental: (§1) The antiproliferative activity of the synthesized compounds was evaluated against two different cancer cell lines, CHO and HepG2, employing the MTT method and doxorubicin as a reference drug. The cytotoxic activity in vitro was expressed as CC50 (µM), the concentration of compound that inhibits proliferation of cells by 50% as compared to untreated cells.
(§2) CHO and HepG2 cell lines were maintained at 37 °C, 6% CO2, 14% O2, 80% N2, with 90% humidity in RPMI supplemented with 10% fœtal bovine serum, 1% L-glutamine (200 mM) and penicillin (100 U/mL) / streptomycin (100 µg/mL) (complete RPMI medium).
(§3) In vitro cytotoxicity evaluation on CHO and HepG2 cell lines was performed according to the method described by Mosmann with slight modifications. Briefly, 5 × 10^3 cells in 100 µL of culture medium (RPMI + […]) were inoculated into each well of 96-well plates and incubated at 37 °C in a humidified 6% CO2, 14% O2, 80% N2 atmosphere. After 24 h incubation, 100 µL of medium with various product concentrations was added and the plates were incubated from 24 h (CHO) to 72 h (HepG2). Duplicate assays were performed for each sample. At the end of the treatment and incubation, the medium was aspirated from the wells and 10 µL yellow MTT (3-(4,5-dimethyl-2-thiazolyl)-2,5-diphenyl-2H-tetrazolium bromide) solution (5 mg MTT/mL in PBS) was added to each well with 100 µL of medium without fœtal bovine serum. Cells were incubated for 2 h at 37 °C to allow MTT […] by mitochondrial dehydrogenase in the viable cells. After 2 h, the MTT solution was aspirated and DMSO (100 µL) was added to each well to dissolve the resulting blue formazan crystals. Plates were then shaken vigorously (300 rpm) for a few minutes. The absorbance was measured at 570 nm with 630 nm as reference wavelength, using a microplate spectrophotometer. DMSO was used as blank and doxorubicin as positive control.
(§4) Cell viability was calculated as percentage of control (cells incubated without compound). The 50% cytotoxic concentrations (CHO CC50 and HepG2 CC50) were determined by non-linear regression analysis processed on dose-response curves, using the Table Curve software 2D v.5.0. CC50 values represent the mean value calculated from three independent experiments.

HepG2 cells = experiment: In vitro cytotoxicity evaluation on HepG2 cell line (MTT method); type: cell-based, human; conditions: for CC50: Homo sapiens, 72 h incubation with product, mean ± SD of three independent experiments, read-out: Cancer cell toxicity HepG2 CC50; for CC50 / antiproliferative activity on HepG2 cells (in words): HepG2 cell line, MTT; for antiproliferative effect times higher toward the HepG2 than toward the CHO cell line: ratio CHO CC50 / HepG2 CC50
Experimental: as §1, §2, §3, §4

Compound: Cc1nc(CS(=O)(=O)c2ccccc2)c([N+](=O)[O-])s1 [2a, 2-methyl-5-nitro-4-phenylsulfonylmethyl-1,3-thiazole]
- CC50 (CHO cells): 323 µM
- CC50 (HepG2 cells): 24.6 µM

Compound: Cc1ccc(S(=O)(=O)Cc2nc(C)sc2[N+](=O)[O-])cc1 [2b, 2-Methyl-5-nitro-4-(tosylmethyl)-1,3-thiazole]
- CC50 (CHO cells): 237 µM
- CC50 (HepG2 cells): 7.7 µM
- antiproliferative effect times higher toward the HepG2 than toward the CHO cell line (HepG2 cells): 31 times
- melting point: 179 °C

Compound: Cc1nc(CS(=O)(=O)c2ccc(Cl)cc2)c([N+](=O)[O-])s1 [2c, 4-[(4-Chlorophenylsulfonyl)methyl]-2-methyl-5-nitro-1,3-thiazole]
- CC50 (CHO cells): > 62.5 µM
- CC50 (HepG2 cells): 13.4 µM
- melting point: 180 °C

Compound: Cc1nc(CS(=O)(=O)c2ccc(Br)cc2)c([N+](=O)[O-])s1 [2d, 4-[(4-Bromophenylsulfonyl)methyl]-2-methyl-5-nitro-1,3-thiazole]
- CC50 (CHO cells): > 500 µM
- CC50 (HepG2 cells): 11.7 µM
- antiproliferative effect times higher toward the HepG2 than toward the CHO cell line (HepG2 cells): 43 times

Compound: Cc1nc(CS(=O)(=O)c2ccc(F)cc2)c([N+](=O)[O-])s1 [2e, 4-[(4-Fluorophenylsulfonyl)methyl]-2-methyl-5-nitro-1,3-thiazole]
- CC50 (CHO cells): 229 µM
- CC50 (HepG2 cells): 19.3 µM

Compound: Cc1nc(CS(=O)(=O)c2cccc(F)c2)c([N+](=O)[O-])s1 [2f, 4-[(3-Fluorophenylsulfonyl)methyl]-2-methyl-5-nitro-1,3-thiazole]
- CC50 (CHO cells): 321 µM
- CC50 (HepG2 cells): 23.6 µM
- melting point: 154 °C

Compound: Cc1nc(CS(=O)(=O)c2cccc(C(F)(F)F)c2)c([N+](=O)[O-])s1 [2g, 2-Methyl-5-nitro-4-{[3-(trifluoromethyl)phenylsulfonyl]methyl}-1,3-thiazole]
- CC50 (CHO cells): 139 µM
- CC50 (HepG2 cells): 25.6 µM
- melting point: 121 °C

Compound: COc1ccc(S(=O)(=O)Cc2nc(C)sc2[N+](=O)[O-])cc1 [2h, 4-[(4-Methoxyphenylsulfonyl)methyl]-2-methyl-5-nitro-1,3-thiazole]
- CC50 (CHO cells): 137 µM
- CC50 (HepG2 cells): 20.6 µM

Compound: CCc1ccc(S(=O)(=O)Cc2nc(C)sc2[N+](=O)[O-])cc1 [2i, 4-[(4-Ethylphenylsulfonyl)methyl]-2-methyl-5-nitro-1,3-thiazole]
- antiproliferative activity on CHO cells (in words) (CHO cells): no activity was observed
- CC50 (CHO cells): > 500 µM
- antiproliferative activity on HepG2 cells (in words) (HepG2 cells): no activity was observed
- CC50 (HepG2 cells): 239 µM

Compound: Cc1nc(CS(C)(=O)=O)c([N+](=O)[O-])s1 [2j, 2-Methyl-4-(methylsulfonylmethyl)-5-nitro-1,3-thiazole]
- antiproliferative activity on CHO cells (in words) (CHO cells): no activity was observed
- CC50 (CHO cells): > 250 µM
- antiproliferative activity on HepG2 cells (in words) (HepG2 cells): no activity was observed
- CC50 (HepG2 cells): > 250 µM
- melting point: 127 °C

Compound: Cc1nc(CS(=O)(=O)c2ccc(Br)s2)c([N+](=O)[O-])s1 [2k, 4-[(5-Bromothiophen-2-ylsulfonyl)methyl]-2-methyl-5-nitro-1,3-thiazole]
- CC50 (CHO cells): 47.3 µM
- CC50 (HepG2 cells): 13.8 µM

Compound: Cc1nc(CS(=O)(=O)c2ccc3ccccc3c2)c([N+](=O)[O-])s1 [2l, 2-Methyl-4-[(naphtalen-2-ylsulfonyl)methyl]-5-nitro-1,3-thiazole]
- CC50 (CHO cells): 106 µM
- CC50 (HepG2 cells): 8.5 µM
- melting point: 163 °C

Compound: Cc1nc(C(Cl)(Cl)S(=O)(=O)c2ccccc2)c([N+](=O)[O-])s1 [3a, 4-[Dichloro(phenylsulfonyl)methyl]-2-methyl-5-nitro-1,3-thiazole]
- CC50 (CHO cells): 2.5 µM
- CC50 (HepG2 cells): 1.2 µM
- melting point: 169 °C

Compound: Cc1ccc(S(=O)(=O)C(Cl)(Cl)c2nc(C)sc2[N+](=O)[O-])cc1 [3b, 4-[Dichloro(tosyl)methyl]-2-methyl-5-nitro-1,3-thiazole]
- CC50 (CHO cells): 1.2 µM
- CC50 (HepG2 cells): 1 µM

Compound: Cc1nc(C(Cl)(Cl)S(=O)(=O)c2ccc(Cl)cc2)c([N+](=O)[O-])s1 [3c, 4-[Dichloro(4-chlorophenylsulfonyl)methyl]-2-methyl-5-nitro-1,3-thiazole]
- CC50 (CHO cells): 1.4 µM
- CC50 (HepG2 cells): 1.1 µM

Compound: Cc1nc(C(Cl)(Cl)S(=O)(=O)c2ccc(Br)cc2)c([N+](=O)[O-])s1 [3d, 4-[(4-Bromophenylsulfonyl)dichloromethyl]-2-methyl-5-nitro-1,3-thiazole]
- CC50 (CHO cells): 1.3 µM
- CC50 (HepG2 cells): 1.2 µM
- melting point: 165 °C

Compound: Cc1nc(C(Cl)(Cl)S(=O)(=O)c2ccc(F)cc2)c([N+](=O)[O-])s1 [3e, 4-[Dichloro(4-fluorophenylsulfonyl)methyl]-2-methyl-5-nitro-1,3-thiazole]
- CC50 (CHO cells): 1.3 µM
- CC50 (HepG2 cells): 1.2 µM
- melting point: 145 °C

Compound: COc1cccc2c1C(=O)c1c(O)c3c(c(O)c1C2=O)C[C@@](O)(C(=O)CO)C[C@@H]3O[C@H]1C[C@H](N)[C@H](O)[C@H](C)O1 [Doxorubicin, reference compound]
- CC50 (CHO cells): 0.6 µM
- CC50 (HepG2 cells): 0.2 µM
